≈ marks a conversion by molar mass, not a printed value.
Columns and labels:
[1] = Glibenclamide particle size distribution; assay type: physicochemical; details: glibenclamide batch
Description: In-vivo bioavailability tests were performed with tablets prepared as disclosed in example 2, using two batches of glibenclamide. The two batches have the following 10 to 90% particle size range:
The distribution of the particle size of batches A and B are illustrated in FIG. 1.
Data from the studies with metformin hydrochloride/glibenclamide tablets formulated with glibenclamide of different particle size characteristics allowed the development of a correlation between drug particle size and the in vivo performance.

[2] = in water at 25° C.; cited from earlier work

Structure (SMILES) | 10 to 90% particle size range [1] | solubility [2]
COc1ccc(Cl)cc1C(=O)NCCc1ccc(S(=O)(=O)NC(=O)NC2CCCCC2)cc1 [batch A, glibenclamide] | 3.47-38.08 μm | 
COc1ccc(Cl)cc1C(=O)NCCc1ccc(S(=O)(=O)NC(=O)NC2CCCCC2)cc1 [glibenclamide] |  | 100 µg/mL (≈ 202 µM)
COc1ccc(Cl)cc1C(=O)NCCc1ccc(S(=O)(=O)NC(=O)NC2CCCCC2)cc1 [batch B, glibenclamide] | 15.63-91.6 μm | 

— patent publication USRE38629E1, “Solid oral dosage form comprising a combination of metformin and glibenclamide” (Merck Sante, priority 1998, dated 2004)
